# Source: patent US20160264593A1 (priority 2013, published 2016)
# Read-outs that look alike come from different tables or passages of the source.
# Assay: Pharmacokinetic study of 157 (and metabolite endothal) in SD rats, iv and po; plasma, liver, brain
# Type: in vivo
# Conditions: for Tmax: read-out: Tmax; for MRT last: read-out: MRT (0-t); for half-life: read-out: T1/2 (converted); for concentration at 2 h / 157 brain concentration: 2 hr
# Experimental: The blood, liver and brain tissue samples were collected at predetermined times from rats. […] Compound were diluted shortly before use in 4% sodium bicarbonate for sterile injection (this is the standard pediatric solution of NaHCO3 with a pH of about 8.5).
# Compound 153 was freshly prepared by diluting the drugs shortly before use in 4% sodium bicarbonate for sterile injection (this is the standard pediatric solution of NaHCO3 with a pH of about 8.5). The final concentrations of 153 solutions were 0.25 mg/mL. The 153 solutions were administered via iv or po route at dose volume of 5 ml/kg according to the latest body weight. Compound 157 was freshly prepared by diluting the drugs shortly before use in 4% sodium bicarbonate for sterile injection (this is the standard pediatric solution of NaHCO3 with a pH of about 8.5). The final concentrations of […] solutions were 0.3 mg/mL. The 157 solutions were administered via iv or po route at dose volume of 5 ml/kg according to the latest body weight.
# Twelve (12) female SD rats per group were dosed by iv with 153 or 157. The rats were fasted overnight prior to dosing, with free access to water. Foods were withheld for 2 hours post-dose. Blood, liver and brain tissue samples in two animals each group were collected at each time point, within 10% of the scheduled time for each time point. Two extra animals were used for analytic method development.
# Blood (>0.3 mL) were collected via aorta abdominalis in anaesthetic animals into tubes containing heparin at 15 min, 1, 2, 6, 10 and 24 hours after iv administration. Liver and brain tissues were collected immediately after animal death. The liver and brain tissues were excised and rinsed with cold saline to avoid blood residual. Upon collection, each sample was placed on ice and the blood samples were subsequently centrifuged (4° C., 11000 rpm, 5 min) to separate plasma. The obtained plasma, liver and brain tissue samples were stored at −70° C. until LC-MS/MS analysis.
# Two (2) female SD rats per group were dosed by po with 153 or 157. The rats were fasted overnight prior to dosing, with free access to water. Foods were withheld for 2 hours post-dose. Blood samples (>0.3 mL) were collected via aorta abdominalis in anaesthetic animals into tubes containing heparin at 30 min, 1, 2, 6, 10 and 24 hours after po administration.
# To each sample, 30 μL IS-D (for blank samples, 20 μL acetonitrile:water (1:1) was added) and 300 μl acetonitrile was added. The sample mixture was vortexed for approximately 3 min. After centrifugation at 10000 rpm for 5 min at 4° C., 100 μL of the upper layer was transferred to a new tube and added 200 μL 0.4% formic acid in water (pH6.0). The mixture was vortexed for approximately 3 min before injected onto the LC/MS/MS system for analysis.
# On the day of the assay, the frozen liver and brain samples were thawed unassisted at room temperature. An about 200 mg weighed sample of each thawed tissue was placed into a plastic tube with water (0.6 mL) to facilitate homogenization. Tissue processing was conducted using a homogenizer for approximately 1 min, 100 μl homogenate was transferred into a fresh Eppendorf tube. To each tube, 50 μL IS-D was added and mixed. Then 500 μl acetonitrile was added and the sample mixture was vortexed for approximately 3 min. After centrifugation at 10000 rpm for 5 min at 4° C., 100 μL of the upper layer was transferred to a new tube and evaporate the supernatant to dryness at 35° C. Reconstitute the residue with 200 μL of 0.4% formic acid in water (pH 6.0), and vortex for 3 min, submit for LC-MS/MS analysis.
# Frozen unknown plasma samples were completely thawed at room temperature and vortexed thoroughly. With a pipette, 50 μL of plasma was transferred into a 2.0 mL Eppendorf tube. 50 μL of 0.1N HCl and 800 μL ethyl acetate were added into each sample. The sample mixture was vortexed for approximately 3 min.
# [1] = female, Sprague-Dawley (SD), rat, in vivo, iv, 1.5 mg/kg, 157 in Brain, iv 1.5 mg/kg, Mean
# [2] = female, Sprague-Dawley (SD), rat, in vivo, iv, 1.5 mg/kg, 157 in Brain, iv 1.5 mg/kg, rat 1
# [3] = female, Sprague-Dawley (SD), rat, in vivo, iv, 1.5 mg/kg, 157 in Brain, iv 1.5 mg/kg, rat 2
# [4] = female, Sprague-Dawley (SD), rat, in vivo, iv, 1.5 mg/kg, 157 in Liver, iv 1.5 mg/kg, Mean
# [5] = female, Sprague-Dawley (SD), rat, in vivo, iv, 1.5 mg/kg, 157 in Liver, iv 1.5 mg/kg, rat 1
# [6] = female, Sprague-Dawley (SD), rat, in vivo, iv, 1.5 mg/kg, 157 in Liver, iv 1.5 mg/kg, rat 2
# [7] = female, Sprague-Dawley (SD), rat, in vivo, iv, 1.5 mg/kg, iv 1.5 mg/kg, Mean, read-out: 157 plasma concentration
# [8] = female, Sprague-Dawley (SD), rat, in vivo, iv, 1.5 mg/kg, iv 1.5 mg/kg, Rat 1, read-out: 157 liver concentration
# [9] = female, Sprague-Dawley (SD), rat, in vivo, iv, 1.5 mg/kg, iv 1.5 mg/kg, Rat 1, read-out: 157 plasma concentration
# [10] = female, Sprague-Dawley (SD), rat, in vivo, iv, 1.5 mg/kg, iv 1.5 mg/kg, Rat 2, read-out: 157 liver concentration
# [11] = female, Sprague-Dawley (SD), rat, in vivo, iv, 1.5 mg/kg, iv 1.5 mg/kg, Rat 2, read-out: 157 plasma concentration
# [12] = female, Sprague-Dawley (SD), rat, in vivo, po, 1.5 mg/kg, 157 in plasma, PO 1.5 mg/kg, rat 2
# [13] = female, Sprague-Dawley (SD), rat, in vivo, po, 1.5 mg/kg, PO 1.5 mg/kg, Mean, read-out: 157 plasma concentration
# [14] = female, Sprague-Dawley (SD), rat, in vivo, po, 1.5 mg/kg, PO 1.5 mg/kg, Rat 1, read-out: 157 plasma concentration
# [15] = female, Sprague-Dawley (SD), rat, in vivo, po, 1.5 mg/kg, PO 1.5 mg/kg, Rat 2, read-out: 157 plasma concentration
structure (smiles),measurement,setting,value
"CCCCCCCOC(=O)C1C2CCC(O2)C1C(=O)N1CCN(C)CC1 (centres unmarked) [Compound 157, 3-(4-Methylpiperazine-1-carbonyl)-7-oxa-bicyclo[2,2,1]heptane-2-carboxylic acid heptyl ester]",concentration at 1 h,"female, SD, rat, in vivo, iv, 1.5 mg/kg, iv 1.5 mg/kg, Rat 2, read-out: 157 liver concentration",17.6 ng/g
same,AUC,"female, SD, rat, in vivo, po, 1.5 mg/kg, 157 po 1.5 mg/kg, read-out: AUC of 157 in plasma",3.2 ng·h/mL
same,Cmax,"female, SD, rat, in vivo, po, 1.5 mg/kg, 157 po 1.5 mg/kg, read-out: Cmax of 157 in plasma",6.14 ng/mL
same,AUC(0-t),"female, SD, rat, in vivo, 157 iv 1.5 mg/kg, read-out: AUClast of 157 in plasma",47.2 ng·h/mL
same,bioavailability,"female, SD, rat, in vivo, 157 po vs iv 1.5 mg/kg, read-out: BA (bioavailability) of 157",6.98%
same,Tmax,"female, Sprague-Dawley (SD), in vivo, 157 in plasma, PO 1.5 mg/kg, rat 2",30 min
same,Cmax,"female, Sprague-Dawley (SD), rat, in vivo, iv, 1.5 mg/kg, 157 in Brain, iv 1.5 mg/kg, Mean, read-out: Cmax",60 ng/g
same,MRT last,[1],18.8 min
same,half-life,[1],9.72 min
same,Cmax,"female, Sprague-Dawley (SD), rat, in vivo, iv, 1.5 mg/kg, 157 in Brain, iv 1.5 mg/kg, rat 1, read-out: Cmax",60 ng/g
same,MRT last,[2],18.3 min
same,half-life,[2],9.18 min
same,Cmax,"female, Sprague-Dawley (SD), rat, in vivo, iv, 1.5 mg/kg, 157 in Brain, iv 1.5 mg/kg, rat 2, read-out: Cmax",60 ng/g
same,MRT last,[3],19.4 min
same,half-life,[3],10.2 min
same,Cmax,"female, Sprague-Dawley (SD), rat, in vivo, iv, 1.5 mg/kg, 157 in Liver, iv 1.5 mg/kg, Mean, read-out: Cmax",297 ng/g
same,MRT last,[4],35.3 min
same,half-life,[4],48.8 min
same,Cmax,"female, Sprague-Dawley (SD), rat, in vivo, iv, 1.5 mg/kg, 157 in Liver, iv 1.5 mg/kg, rat 1, read-out: Cmax",337 ng/g
same,MRT last,[5],31.9 min
same,half-life,[5],27.3 min
same,Cmax,"female, Sprague-Dawley (SD), rat, in vivo, iv, 1.5 mg/kg, 157 in Liver, iv 1.5 mg/kg, rat 2, read-out: Cmax",257 ng/g
same,MRT last,[6],38.8 min
same,half-life,[6],70.2 min
same,concentration at 0.25 h,[7],115 ng/mL
same,concentration at 0.25 h,[8],337 ng/g
same,concentration at 0.25 h,[9],116 ng/mL
same,concentration at 0.25 h,[10],257 ng/g
same,concentration at 0.25 h,[11],114 ng/mL
same,concentration at 1 h,[7],3.12 ng/mL
same,concentration at 1 h,[9],2.67 ng/mL
same,concentration at 1 h,[11],3.57 ng/mL
same,concentration at 2 h,"female, Sprague-Dawley (SD), rat, in vivo, iv, 1.5 mg/kg, iv 1.5 mg/kg, Mean, read-out: 157 liver concentration",8.06 ng/g
same,concentration at 2 h,[7],0.524 ng/mL
same,concentration at 2 h,[8],6.4 ng/g
same,concentration at 2 h,[9],0.491 ng/mL
same,concentration at 2 h,[10],9.72 ng/g
same,concentration at 2 h,[11],0.556 ng/mL
same,AUC(0-inf),[12],3 ng·h/mL
same,AUC,"female, Sprague-Dawley (SD), rat, in vivo, po, 1.5 mg/kg, 157 in plasma, PO 1.5 mg/kg, rat 2, read-out: AUC",3 ng·h/mL
same,Cmax,"female, Sprague-Dawley (SD), rat, in vivo, po, 1.5 mg/kg, 157 in plasma, PO 1.5 mg/kg, rat 2, read-out: Cmax",6.35 ng/mL
same,MRT last,[12],54.2 min
same,half-life,[12],22.2 min
same,concentration at 0.5 h,"female, Sprague-Dawley (SD), rat, in vivo, po, 1.5 mg/kg, PO 1.5 mg/kg, Mean",6.14 ng/mL
same,concentration at 0.5 h,"female, Sprague-Dawley (SD), rat, in vivo, po, 1.5 mg/kg, PO 1.5 mg/kg, Rat 1",5.92 ng/mL
same,concentration at 0.5 h,"female, Sprague-Dawley (SD), rat, in vivo, po, 1.5 mg/kg, PO 1.5 mg/kg, Rat 2",6.35 ng/mL
same,concentration at 1 h,[13],1.37 ng/mL
same,concentration at 1 h,[14],1.48 ng/mL
same,concentration at 1 h,[15],1.26 ng/mL
same,concentration at 2 h,[13],0.249 ng/mL
same,concentration at 2 h,[14],0.303 ng/mL
same,concentration at 2 h,[15],0.194 ng/mL
same,Tmax,"female, Sprague-Dawley (SD), rat, in vivo, 157 in Liver, iv 1.5 mg/kg, Mean",15 min
same,157 brain concentration,"iv 1.5 mg/kg, Rat 1",BLQ
same,157 brain concentration,"iv 1.5 mg/kg, Rat 2",BLQ
same,157 liver concentration,"iv 1.5 mg/kg, 10 hr, Rat 2",BLQ
